The values that follow are results of earlier work, collected in patent US9820994B2, “Cerclage pessary containing progesterone of prolonged, sustained, and continuous release useful for prevention of preterm birth” (Laboratorios Andromaco S.A., priority 2014, dated 2017).

The series relates to women at risk of preterm birth (short cervix / history of preterm birth).

Take `CC(=O)[C@H]1CC[C@H]2[C@@H]3CCC4=CC(=O)CC[C@]4(C)[C@H]3CC[C@]12C` [progesterone]: the “Reduction in rate of spontaneous preterm birth before 33-34 weeks” value (250 mg IM weekly, 200 mg daily vaginal suppositories, 90 mg vaginal gel) is listed as “approximately 40%”. Also, the “Rate of births before 34 weeks” value (vaginal progesterone group, singleton, previous preterm birth, cervical length less than 25 mm (Alfirevic et al., 2013)) is roughly 30%. Moreover, for the setting “vaginally administered, patients with short cervix”, the “Reduction of the rate of spontaneous preterm birth before 33-34 weeks” value is listed as 40-45%.
